Laboratory results: patent US10576062B2, “Carbamoyloxymethyl triazole cyclohexyl acids as LPA antagonists” (Bristol-Myers Squibb Company, priority 2016, dated 2020)

Molecular target: T1, human LPA1 (Homo sapiens, UniProt Q92633)
T1 construct: expressed in transfected cells; host or cells: Chinese hamster ovary (CHO) cells
Assay: LPA1 functional antagonist assay (LPA-induced calcium flux)
Type: cell-based
Settings: CHO cells overexpressing human LPA1; inhibition of calcium flux induced by 10 nM LPA; read-out: hLPA1 IC50
Procedure, shortened: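 CHO cells overexpressing human LPA1, loaded with calcium dye 30 min at 37° C, were preincubated 20 min at room temperature with compound (0.08 nM–5 μM, 0.5% DMSO) in HBSS/20 mM HEPES/0.1% fatty acid-free BSA.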

T1 sequence (Q92633 whole entry): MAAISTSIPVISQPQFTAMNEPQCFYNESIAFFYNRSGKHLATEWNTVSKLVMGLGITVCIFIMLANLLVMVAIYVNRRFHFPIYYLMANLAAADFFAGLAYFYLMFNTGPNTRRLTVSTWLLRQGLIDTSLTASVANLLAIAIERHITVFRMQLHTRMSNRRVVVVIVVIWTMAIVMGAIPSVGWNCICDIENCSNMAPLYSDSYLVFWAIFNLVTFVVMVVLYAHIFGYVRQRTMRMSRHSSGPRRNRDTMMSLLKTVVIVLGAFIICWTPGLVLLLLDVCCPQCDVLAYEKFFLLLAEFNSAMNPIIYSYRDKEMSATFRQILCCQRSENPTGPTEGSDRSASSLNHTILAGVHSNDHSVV

SMILES	IC50 [nM]
CCc1nc(-c2nnn(C)c2COC(=O)N(C)Cc2ccccc2)ccc1O[C@H]1CCC[C@H](C(=O)O)C1 [Example 201, (1S,3S)-3-((6-(5-(((benzyl(methyl)carbamoyl)oxy)methyl)-1-methyl-1H-1,2,3-triazol-4-yl)-2-ethylpyridin-3-yl)oxy)cyclohexane-1-carboxylic acid]	25
Cc1nc(-c2nnn(C)c2CCOC(=O)N2CCCC2)ccc1O[C@H]1CCC[C@H](C(=O)O)C1 [Example 246, (2S,3S)-3-((2-Methyl-6-(1-methyl-5-(2-((pyrrolidine-1-carbonyl)oxy)-ethyl)-1H-1,2,3-triazol-4-yl)pyridin-3-yl)oxy)cyclohexane-1-carboxylic acid]	210
Cc1nc(-c2nnn(C)c2COC(=O)N(C)C[C@@H]2C[C@H]2C)cnc1O[C@H]1CCC[C@H](C(=O)O)C1 [Example 235, (1S,3S)-3-((3-methyl-5-(1-methyl-5-(((methyl(((1R,2R)-2-methylcyclopropyl)methyl)carbamoyl)oxy)methyl)-1H-1,2,3-triazol-4-yl)pyrazin-2-yl)oxy)cyclohexane-1-carboxylic acid]	70
CN(C(=O)OCc1c(-c2ccc(O[C@H]3CCC[C@H](C(=O)O)C3)c(C#N)n2)nnn1C)C1CCC1 [Example 293, (1S,3S)-3-((2-cyano-6-(5-(((cyclobutyl(methyl)carbamoyl)oxy)methyl)-1-methyl-1H-1,2,3-triazol-4-yl)pyridin-3-yl)oxy)cyclohexane-1-carboxylic acid]	23

Same assay, conditions: human LPA1; read-out: hLPA1 IC50

SMILES	IC50 [nM]
Cc1nc(-c2nnn(C)c2COC(=O)N(C)CC2CC2(C)C)ccc1O[C@H]1CCC[C@H](C(=O)O)C1 (mixture of isomers) [Example 184, (1S,3S)-3-((6-(5-(((((2,2-dimethylcyclopropyl)methyl)(methyl)carbamoyl)oxy)methyl)-1-methyl-1H-1,2,3-triazol-4-yl)-2-methylpyridin-3-yl)oxy)cyclohexane-1-carboxylic acid]	37
Cc1nc(-c2nnn(C)c2COC(=O)N(C)CCC2CC2)ccc1O[C@H]1CCC[C@H](C(=O)O)C1 [Example 162, (1S,3S)-3-((6-(5-((((2-cyclopropylethyl)(methyl)carbamoyl)oxy)methyl)-1-methyl-1H-1,2,3-triazol-4-yl)-2-methylpyridin-3-yl)oxy)cyclohexane-1-carboxylic acid]	34

Same assay, conditions: read-out: hLPA1 IC50

SMILES	IC50 [nM]
CN(C(=O)OCc1c(-c2ccc(O[C@H]3CCC[C@H](C(=O)O)C3)cn2)nnn1C)C1(C)CC1 [Example 79, (1S,3S)-3-((6-(1-methyl-5-(((methyl(1-methylcyclopropyl)carbamoyl)oxy)methyl)-1H-1,2,3-triazol-4-yl)pyridin-3-yl)oxy)cyclohexane-1-carboxylic acid]	45
[2H]C([2H])([2H])n1nnc(-c2ccc(O[C@H]3CCC[C@H](C(=O)O)C3)cn2)c1COC(=O)N(C)C1CCCC1 [Example 111, (1S,3S)-3-((6-(5-(((cyclopentyl(methyl)carbamoyl)oxy)methyl)-1-(methyl-d3)-1H-1,2,3-triazol-4-yl)pyridin-3-yl)oxy)cyclohexane-1-carboxylic acid]	23
CCCC(C)N(C)C(=O)OCc1c(-c2ccc(O[C@H]3CCC[C@H](C(=O)O)C3)c(C)c2)nnn1C (mixture of isomers) [Example 39, (1S,3S)-3-(2-methyl-4-(1-methyl-5-(((methyl(pentan-2-yl)carbamoyl)oxy)methyl)-1H-1,2,3-triazol-4-yl)phenoxy)cyclohexane-1-carboxylic acid]	23
Cc1nc(-c2nnn(C)c2COC(=O)N(C)CC2CC2)ccc1O[C@H]1CCC[C@H](C(=O)O)C1 [Example 115, (1S,3S)-3-((6-(5-((((cyclopropylmethyl)(methyl)carbamoyl)oxy)methyl)-1-methyl-1H-1,2,3-triazol-4-yl)-2-methylpyridin-3-yl)oxy)cyclohexane-1-carboxylic acid]	18
